Measured values taken from patent publication US7442547B2, “Dendritic cells and the uses thereof in screening cellular targets and potential drugs” (Sekmed, S.R.L., priority 2001, dated 2008).

System: DC (D1, D8, BMDC/RAG2−/−)
Assay: IL-2 production by DC after stimulation in vitro (IL-2 ELISA of supernatant)
Type: cell-based, mouse
Conditions: splenic (D1) and bone marrow-derived DC (D8, BMDC/RAG2−/−), long- and short-term lines
Procedure: Antibodies and Reagents. LPS (E. Coli 026:B6, used at 10 μg/ml) and zymosan (used at 10 μg/ml) were obtained from Sigma Chem. (St. Louis, Mo.). rTNF, (San Francisco) and rIL-1. (Genzyme, Cambridge Mass.) were used at 100 U/ml and 10 μg/ml respectively. IFN was kindly provided by Schering-Plough (Dardilli, Fr.) and used at 1000 U/ml. CpG ([…])(SEQ ID NO. 5) and CpG control ([…]) (SEQ ID NO. 6) oligos were purchased from Life Technologies and used at a concentration of 1 µM. PE-conjugated anti-IL-2, PE-conjugated rat Isotype control, biotinilated anti-CD8α and FITC-conjugated anti-CD11c monoclonal antibodies were purchased from Pharmingen. Quantum-red-conjugated streptavidin was obtained from Sigma. Anti-I-A^d/I-E^d mAb (clone M5 /114, rat IgG2b) was kindly provided by Dr. A. Ager (NIMR, London, UK). FITC-conjugated anti-rat was from Jackson ImmunoResearch (West Grove, Pa.). Anti-CD40 antibody [clone FGK45 (10)] was used at a concentration of 20 μg/ml and crosslinked with a monoclonal anti-rat antibody (10 μg/ml, PharMingen).
DC and culture medium. D1 and D8.1 long term DC were cultured in IMDM (Sigma, St. Louis, Mo.) containing 10% heat-inactivated fetal bovine serum (GIBCO), 100 IU penicillin, 100 μg/ml streptomycin, 2 mM L-glutamine (all from Sigma), and 50 μM 2-mercaptoethanol (complete IMDM) with 30% supernatant from R1 medium [supernatant from NIH3T3 fibroblasts transfected with GM-CSF].
Fresh BMDCRAG2−/− were derived from RAG2−/− BALB/c or C57BL/6 bone marrow cells. Usually bone marrow cells cultured for two days and frozen. BMDCRAG2−/− were obtained from defrost cells after 7 days of culture in medium containing 10% of supernatant of GM-CSF transduced B16 tumor cells. BMDCRAG2−/− were used for activation only if they were immature, as judged by low B7.2 and CD40 expression.
IL-2 ELISA. IL-2 ELISA was performed using the DuoSet kit (R and D, Minneapolis, Minn.) and following the manufacturer recommendations. […]

| Substance | induction of IL-2 production/secretion by DC |
| --- | --- |
| CpG: oligo DNA containing the unmethylated CpG motif, TCCATGACGTTCCTGATGCT (SEQ ID NO. 5), recognized by TLR9 (listed as DNA, further chemistry not given here) | efficient in stimulating DC to secrete IL-2 |
| IL-1 β: inflammatory cytokine (Genzyme) | none of the inflammatory cytokines, used individually or added simultaneously to DC cultures, were able to promote IL-2 secretion |
